Test results published in ChEMBL document CHEMBL3045138, “Peroxidizing Phytotoxic Activity of Pyrazoles” (J Pestic Sci, 1995).

Legend:
Scenedesmus acutus [1] = test: Growth inhibition of Scenedesmus acutus assessed as packed cell volume per ml of algal culture volume after 16 hr (reference value: 3.8 ul pcv/ml); type: functional
Scenedesmus acutus [2] = test: Phytotoxicity against Scenedesmus acutus assessed as inhibition of chlorophyll content after 16 hr by spectrophotometry relative to untreated control; type: functional

## C#CCOc1cc(N2C(=O)C3=C(CCCC3)C2=O)c(F)cc1Cl
Scenedesmus acutus [1]
  Activity: 2.4 uL/ml
Scenedesmus acutus [2]
  inhibition (INH): 73.6%

## Fc1cc(Cl)c(OC(F)F)cc1-n1nc2c(c1Cl)CCCC2
Scenedesmus acutus [1]
  Activity: 1.5 uL/ml
Scenedesmus acutus [2]
  inhibition (INH): 89.7%

## N#Cc1cnn(-c2c(Cl)cc(C(F)(F)F)cc2Cl)c1N
Scenedesmus acutus [1]
  Activity: 2 uL/ml
Scenedesmus acutus [2]
  inhibition (INH): 61%

## COc1cc(-n2nc(C)c(C)c2C)c(F)cc1Cl
Scenedesmus acutus [1]
  Activity: 4.1 uL/ml
Scenedesmus acutus [2]
  inhibition (INH): 0%

## C/C=C/COc1cc(-n2nc(C)c(C)c2C)c(F)cc1Cl
Scenedesmus acutus [1]
  Activity: 3.5 uL/ml
Scenedesmus acutus [2]
  inhibition (INH): 17.2%

## C#CCOc1cc(-n2nc(C)c(Cl)c2C)c(Cl)cc1Cl
Scenedesmus acutus [1]
  Activity: 4 uL/ml
Scenedesmus acutus [2]
  inhibition (INH): 0%

## C#CCOc1cc(-n2nc(CC)c(Cl)c2CC)c(F)cc1Cl
Scenedesmus acutus [1]
  Activity: 2.7 uL/ml
Scenedesmus acutus [2]
  inhibition (INH): 30.3%

## Cc1nn(-c2cc(OC(C)C)c(Cl)cc2F)c(C)c1C
Scenedesmus acutus [1]
  Activity: 3.9 uL/ml
Scenedesmus acutus [2]
  inhibition (INH): 11.1%

## Cc1cc(C)n(-c2ccc(Cl)cc2F)n1
Scenedesmus acutus [1]
  Activity: 4.1 uL/ml
Scenedesmus acutus [2]
  inhibition (INH): 0%

## C#CCOc1cc(-n2nc(C)c(Cl)c2C)c(Cl)cc1F
Scenedesmus acutus [1]
  Activity: 3.1 uL/ml
Scenedesmus acutus [2]
  inhibition (INH): 26.7%

## C#CCOc1cc(-n2nc(C)c(Cl)c2C)c(F)cc1Cl
Scenedesmus acutus [1]
  Activity: 2.7 uL/ml
Scenedesmus acutus [2]
  inhibition (INH): 38.5%

## Cc1nn(-c2cc(OC(C)C)c(Cl)cc2F)c(C)c1[N+](=O)[O-]
Scenedesmus acutus [1]
  Activity: 3.5 uL/ml
Scenedesmus acutus [2]
  inhibition (INH): 17.7%

## C#CCOc1cc(-n2nc(C)c([N+](=O)[O-])c2C)c(F)cc1Cl
Scenedesmus acutus [1]
  Activity: 2.5 uL/ml
Scenedesmus acutus [2]
  inhibition (INH): 46%

## O=C1C2=C(CCCC2)C(=O)N1c1ccc(Cl)cc1 [CHLOROPHTHALIUM]
Scenedesmus acutus [1]
  Activity: 2.5 uL/ml
Scenedesmus acutus [2]
  inhibition (INH): 72.3%

## CCOc1cc(Oc2ccc(C(F)(F)F)cc2Cl)ccc1[N+](=O)[O-] [OXYFLUORFEN]
Scenedesmus acutus [1]
  Activity: 1.4 uL/ml
Scenedesmus acutus [2]
  inhibition (INH): 92.2%
